Eleven compounds from the NIST ThermoML archive (doi:10.1016/j.jct.2010.12.012) can be followed below.

SMILES strings stand for the structures. Values joined by “and” are separate entries in the source; they are usually repeats but may differ in a detail not shown here. Equal values may be shown once. ± gives the expanded uncertainty stated by the source.

The nature of data set [1]: xn = mol fraction of the nth substance listed. The note with it: 298.15 K, 101 kPa, Liquid, Vibrating tube method.
The conditions of data set [2]: 298.15 K; 101.33 kPa; Liquid; Vibrating tube method.
Data set [3] in a line: refractive index (Na D-line) (dimensionless). The settings on record: 298.15 K; 101.33 kPa; Liquid; Standard Abbe refractometry.

As a reminder, the mass density is the mass of a sample divided by its volume. For the compound `C1CCCCCCC1` [cyclooctane] + CCCCn1cc[n+](C)c1.COS(=O)(=O)[O-], the mass density in data set [1] (x1 = 0.02) stood at 1207.63 ± 1.3 kg/m3.

As a reminder, the refractive index is the speed of light in vacuum divided by its phase velocity in the sample. In the case of `CCCCn1cc[n+](C)c1.COS(=O)(=O)[O-]` [1-butyl-3-methylimidazolium methyl sulfate], the mass density in data set [2] is 1212.59 ± 0.41 kg/m3. For the same compound, in data set [3], the refractive index amounted to 1.47792 ± 0.00037.

With `CC1CCCCC1` [methylcyclohexane], the mass density in data set [2] came to 765.02 ± 0.24 kg/m3. For the same compound, in data set [3], the refractive index was 1.42062 ± 0.00037.

Regarding `CCCCn1cc[n+](C)c1.COS(=O)(=O)[O-]` [1-butyl-3-methylimidazolium methyl sulfate] + CC1CCCCC1, the mass density in data set [1] (x2 = 0.028) was found to be 1207.3 ± 1.3 kg/m3.

`Cc1ccccc1` [toluene]: in data set [2], the mass density is reported as 862.17 ± 0.1 kg/m3. Further, the refractive index in data set [3] is 1.49399 ± 0.00031.

`CCCCn1cc[n+](C)c1.COS(=O)(=O)[O-]` [1-butyl-3-methylimidazolium methyl sulfate] + C1CCCCC1: the mass density in data set [1] (x2 = 0.039) is 1204.53 ± 1.3 kg/m3.

`C1=CCCCC1` [cyclohexene] + CCCCn1cc[n+](C)c1.COS(=O)(=O)[O-]: the mass density in data set [1] (x1 = 0.071) is given as 1201.85 ± 1.9 kg/m3.

For the compound `C1CCCCC1` [cyclohexane], in data set [2], the mass density is given as 773.8 ± 0.24 kg/m3. Also, the refractive index in data set [3] worked out at 1.4236 ± 0.00037.

As to `CCCCn1cc[n+](C)c1.COS(=O)(=O)[O-]` [1-butyl-3-methylimidazolium methyl sulfate] + Cc1ccccc1, the mass density in data set [1] (x2 = 0.328) was 1151 ± 1.2 kg/m3 and 1153.43 ± 1.2 kg/m3.

Turning to `C1=CCCCC1` [cyclohexene], in data set [2], the mass density stood at 805.69 ± 0.24 kg/m3. The refractive index in data set [3] is reported as 1.44378 ± 0.00037.

On to `C1CCCCCCC1` [cyclooctane], for which the mass density in data set [2] came to 831.47 ± 0.24 kg/m3. The refractive index in data set [3] is recorded as 1.45598 ± 0.00037.
